Assay results: US10111865B2 (priority 2015, dated 2018)
Where two headings read alike, the source gives them in different places.

Legend:
[1] = Driving performance (real driving on the road) and cognitive/psychomotor test battery after evening or middle-of-the-night dosing (Example 3); format: in vivo, human; conditions: for effect on driving: driving test at 9 am; for effect on memory test, body sway, DSST or critical tracking: cognitive and psychomotor test battery before driving test
Excerpt: The study participants included healthy, male and female subjects between 21 and 45 years of age, with a valid drivers license for at least 3 years.
Following a cognitive and psychomotor test battery, the driving test started at 9 am and lasted for one hour.

[2] = human, in vivo; for residual effect on Choice Reaction Time / residual effect on Critical Flicker Fusion: po
[3] = format: in vivo, human
Excerpt: There was a washout of 4 days between each treatment period.
The study included healthy, male and female subjects between 18 and 45 years of age within 30% of ideal weight. The subjects in Part 1 of the study could be of either gender, but within Part 2 of the study there had to be at least 4 subjects of each gender.

[4] = Daytime performance after 5-hour sleep restriction, 4-night placebo-controlled study in healthy adults (Example 4); format: in vivo, human; conditions: 15 mg
Description: The study included a 2-night single-blind placebo run-in period, a 4-night double-blind treatment period during which sleep was restricted to 5 hours and a 2-night single-blind placebo run-out period. The study included healthy male and female volunteers 18 to <55 years of age.
2-night run-in period: All patients received placebo
2-night run-out period: All patients received placebo
The primary endpoints included observations based on the Multiple Sleep Latency Test (MSLT) and Slow Wave Sleep (SWS) assessment.

[5] = human, in vivo
[6] = three-month efficacy study, insomnia; cited from earlier work
[7] = middle-of-the-night administration (4 am; gaboxadol 15 mg, zolpidem 10 mg)

SMILES: Cc1ccc(-c2nc3ccc(C)cn3c2CC(=O)N(C)C)cc1 [zolpidem]
- effect on driving [1, 7]: numerically greater effect

SMILES: CCN(CC)CCN1C(=O)CN=C(c2ccccc2F)c2cc(Cl)ccc21 [Flurazepam]
- residual effect on Choice Reaction Time [2]: showed significant effect
- residual effect on Critical Flicker Fusion [2]: showed significant effect

SMILES: Oc1noc2c1CCNC2 [gaboxadol, 4,5,6,7-tetrahydroisoxazolo [5,4-c]pyridine-3-ol]
- serious adverse experiences ([3]; both parts of the study): no serious adverse experiences
- tolerability ([3]; single dose intravenous 5 and 10 mg): generally well tolerated
- tolerability ([3]; single dose oral 2.5 to 20 mg): generally well tolerated
- effect on memory test, body sway, DSST or critical tracking [1]: no effect
- tolerability ([1]; evening and middle-of-the-night dose 15 mg): well tolerated
- effect on driving compared with blood alcohol ([1]; evening dose 15 mg): less than the effect observed at a 0.05% blood alcohol concentration
- most frequent adverse events ([1]; evening treatment 15 mg): headache and somnolence
- effect on driving [1, 7]: clinically relevant impairing effect
- most frequent adverse events ([1]; middle-of-the-night treatment 15 mg): dizziness, nausea and somnolence
- MSLT, average difference to placebo (longer) ([4]; last two Sleep Restriction days, p=0.047, 1 sided): 2.01 min
- Karolinska Sleepiness Score (KSS), average difference to placebo (less) ([4]; last two Sleep Restriction days, p=0.058, 1 sided, LDA model): 0.68
- SWS, average difference to placebo (longer) ([4]; last two Sleep Restriction nights, p<0.001, 1 sided): 20.53 min
- biophysiological measures of stress (heart rate variability, cortisol levels, catecholamine levels, body temperature) vs placebo ([4]; sleep restriction): no differences
- neurocognitive battery effect sizes (daytime performance) ([4]; sleep restriction): no strong evidence that gaboxadol improves daytime performance
- Oral clearance (CL/F) compared with clearance after intravenous administration [5]: of similar magnitude
- AUC0-inf, dependence on dose ([5]; iv): increased with increasing dose
- Cmax, dependence on dose ([5]; iv): increased with increasing dose
- other parameters (CL, t1/2, Vss, fe, and CLR), dependence on dose ([5]; iv): independent of dose
- steady-state volume of distribution (Vss) ([5]; iv): moderate
- systemic clearance (CL) ([5]; iv): moderate
- other parameters (CL/F, tmax, t1/2, fe, and CLR), dependence on dose ([5]; po): independent of dose
- AUC0-inf, dependence on dose ([5]; po, 20 mg): increased with increasing dose
- Cmax, dependence on dose ([5]; po, 20 mg): increased with increasing dose
- residual effects on other measurements (MSLT, DSST, Tracking, Memory tests, Body Sway, Leeds Sleep Evaluation Questionnaire) [2]: did not show any signs of residual effects
- residual effect on Choice Reaction Time [2]: did not show residual effect
- residual effect on Critical Flicker Fusion [2]: did not show residual effect
- effects in sleep onset and sleep maintenance [6]: failed to show significant effects

SMILES: CN1CCN(C(=O)OC2c3nccnc3C(=O)N2c2ccc(Cl)cn2)CC1 (centres unmarked) [zopiclone]
- effect on memory test, body sway, DSST or critical tracking [1]: had effect on several of these tests
- effect on driving ([1]; evening dose (gaboxadol 15 mg, zopiclone 7.5 mg)): numerically greater effect
